According to ChEMBL document CHEMBL1201862, “PubChem BioAssay data set” (2004):
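These data come from cells grown in 96-well plates and exposed to compound for 48 hours at five concentrations. Abbreviation: GI50, concentration required for 50% inhibition of growth.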 Active and inactive are the calls of the source. No stated cut-off is given here; in the data, active = GI50 up to about 1.1 µM and inactive = higher.

How the values were obtained:
Test in all cases: growth of human tumour cells (NCI), 48 h
NCI-H226 = tested on: NCI-H226
DMS-114 = tested on: DMS-114
A498 = tested on: A498
HOP-62 = tested on: HOP-62
HT-29 = tested on: HT-29
SN12C = tested on: SN12C
OVCAR-4 = tested on: OVCAR-4
HCT-116 = tested on: HCT-116
HCT-15 = tested on: HCT-15
CAKI-1 = tested on: CAKI-1
SF-295 = tested on: SF-295
DLD-1 = tested on: DLD-1
UACC-62 = tested on: UACC-62
NCI-H460 = tested on: NCI-H460
KM12 = tested on: KM12
SF-268 = tested on: SF-268
M14 = tested on: M14
RXF 393 = tested on: RXF 393
IGROV-1 = tested on: IGROV-1
UO-31 = tested on: UO-31
KM-20L2 = tested on: KM-20L2
SK-OV-3 = tested on: SK-OV-3
HL-60 = tested on: HL-60
NCI-H522 = tested on: NCI-H522
Malme-3M = tested on: Malme-3M
RPMI-8226 = tested on: RPMI-8226
EKVX = tested on: EKVX
SF-539 = tested on: SF-539
XF498 = tested on: XF498
COLO 205 = tested on: COLO 205
LXFL 529 = tested on: LXFL 529
SK-MEL-5 = tested on: SK-MEL-5
HOP-92 = tested on: HOP-92
DMS-273 = tested on: DMS-273
K562 = tested on: K562
U-251 = tested on: U-251
NCI-H23 = tested on: NCI-H23
SNB-75 = tested on: SNB-75
HCC 2998 = tested on: HCC 2998
SK-MEL-2 = tested on: SK-MEL-2
OVCAR-8 = tested on: OVCAR-8
SNB-19 = tested on: SNB-19
OVCAR-3 = tested on: OVCAR-3
LOX IMVI = tested on: LOX IMVI
OVCAR-5 = tested on: OVCAR-5
MOLT-4 = tested on: MOLT-4
ACHN = tested on: ACHN
TK-10 = tested on: TK-10
CCRF-CEM = tested on: CCRF-CEM
A549 = tested on: A549
786-0 = tested on: 786-0
SW-620 = tested on: SW-620
UACC-257 = tested on: UACC-257
SK-MEL-28 = tested on: SK-MEL-28
SNB-78 = tested on: SNB-78
M19-MEL = tested on: M19-MEL
SR = tested on: SR

For `C1CCN(C2OC3C(COC3N3CCCCC3)OC2OC2CCO[C@@H]2N2CCCCC2)CC1` (some centres not stated), the GI50 (NCI-H226) was 20 µM (inactive), the GI50 (DMS-114) was 14.3 µM (inactive) and the GI50 (A498) was 34.1 µM (inactive). The GI50 (HOP-62) was 36.2 µM (inactive), the GI50 (HT-29) was 89.1 µM (inactive) and the GI50 (SN12C) was 43.1 µM (inactive). For the same molecule, the GI50 (OVCAR-4) was 34 µM (inactive), the GI50 (HCT-116) was 34.7 µM (inactive) and the GI50 (HCT-15) was 29.5 µM. For the same molecule, the GI50 (CAKI-1) was 30.1 µM (inactive), the GI50 (SF-295) was 47.5 µM (inactive) and the GI50 (DLD-1) was 38.8 µM (inactive). The GI50 (UACC-62) was 13.4 µM (inactive), the GI50 (NCI-H460) was > 100 µM (inactive) and the GI50 (KM12) was 78.5 µM (inactive). For the same molecule, the GI50 (SF-268) was 53.7 µM (inactive), the GI50 (M14) was 40.6 µM (inactive) and the GI50 (RXF 393) was 8.18 µM (inactive). For the same molecule, the GI50 (IGROV-1) was 79.3 µM (inactive), the GI50 (UO-31) was 44.5 µM (inactive) and the GI50 (KM-20L2) was > 100 µM (inactive). The GI50 (SK-OV-3) was 32.6 µM (inactive), the GI50 (HL-60) was 8.47 µM (inactive) and the GI50 (NCI-H522) was 12.4 µM (inactive). For the same molecule, the GI50 (Malme-3M) was 21.1 µM (inactive), the GI50 (RPMI-8226) was 17.9 µM (inactive) and the GI50 (EKVX) was 33.8 µM (inactive). For the same molecule, the GI50 (SF-539) was 16.5 µM (inactive), the GI50 (XF498) was 15.8 µM (inactive) and the GI50 (COLO 205) was 38.3 µM (inactive). For the same molecule, the GI50 (LXFL 529) was 17.3 µM (inactive), the GI50 (SK-MEL-5) was 25.2 µM (inactive) and the GI50 (HOP-92) was 11 µM (inactive). For the same molecule, the GI50 (DMS-273) was 32.1 µM (inactive), the GI50 (K562) was 28.4 µM (inactive) and the GI50 (U-251) was 30.5 µM (inactive). For the same molecule, the GI50 (NCI-H23) was 21.1 µM (inactive), the GI50 (SNB-75) was 9.98 µM (inactive) and the GI50 (HCC 2998) was > 100 µM (inactive). The GI50 (SK-MEL-2) was 20.8 µM (inactive), the GI50 (OVCAR-8) was 17.5 µM (inactive) and the GI50 (SNB-19) was 36.2 µM (inactive). For the same molecule, the GI50 (OVCAR-3) was 24.8 µM (inactive), the GI50 (LOX IMVI) was 75 µM (inactive) and the GI50 (OVCAR-5) was > 100 µM (inactive). The GI50 (MOLT-4) was 15.8 µM (inactive), the GI50 (ACHN) was 25.9 µM (inactive) and the GI50 (TK-10) was 80.9 µM (inactive). The GI50 (CCRF-CEM) was 5.11 µM (inactive), the GI50 (A549) was 51.3 µM (inactive) and the GI50 (786-0) was 34.7 µM (inactive). For the same molecule, the GI50 (SW-620) was 81.3 µM (inactive), the GI50 (UACC-257) was 20.8 µM (inactive) and the GI50 (SK-MEL-28) was 57.9 µM (inactive). For the same molecule, the GI50 (SNB-78) was 8.26 µM (inactive).

For `O=c1c2cccnc2ncn1CCN1CCCC1`, the GI50 (NCI-H226) was > 100 µM (inactive), the GI50 (DMS-114) was > 100 µM (inactive) and the GI50 (HOP-62) was > 100 µM (inactive). For the same molecule, the GI50 (HT-29) was > 100 µM (inactive), the GI50 (SN12C) was > 100 µM (inactive) and the GI50 (OVCAR-4) was > 100 µM (inactive). The GI50 (HCT-116) was > 100 µM (inactive), the GI50 (CAKI-1) was > 100 µM (inactive) and the GI50 (SF-295) was > 100 µM (inactive). The GI50 (DLD-1) was > 100 µM (inactive), the GI50 (UACC-62) was > 100 µM (inactive) and the GI50 (NCI-H460) was > 100 µM (inactive). For the same molecule, the GI50 (KM12) was > 100 µM (inactive), the GI50 (SF-268) was > 100 µM (inactive) and the GI50 (M14) was > 100 µM (inactive). For the same molecule, the GI50 (RXF 393) was > 100 µM (inactive), the GI50 (IGROV-1) was > 100 µM (inactive) and the GI50 (UO-31) was > 100 µM (inactive). For the same molecule, the GI50 (KM-20L2) was > 100 µM (inactive), the GI50 (SK-OV-3) was > 100 µM (inactive) and the GI50 (NCI-H522) was > 100 µM (inactive). For the same molecule, the GI50 (Malme-3M) was > 100 µM (inactive), the GI50 (M19-MEL) was > 100 µM (inactive) and the GI50 (EKVX) was > 100 µM (inactive). For the same molecule, the GI50 (SF-539) was > 100 µM (inactive), the GI50 (XF498) was > 100 µM (inactive) and the GI50 (COLO 205) was > 100 µM (inactive). For the same molecule, the GI50 (LXFL 529) was > 100 µM (inactive), the GI50 (SK-MEL-5) was > 100 µM (inactive) and the GI50 (HOP-92) was > 100 µM (inactive). The GI50 (DMS-273) was > 100 µM (inactive), the GI50 (SR) was > 100 µM (inactive) and the GI50 (K562) was > 100 µM (inactive). For the same molecule, the GI50 (U-251) was > 100 µM (inactive), the GI50 (NCI-H23) was > 100 µM (inactive) and the GI50 (SNB-75) was > 100 µM (inactive). For the same molecule, the GI50 (HCC 2998) was > 100 µM (inactive), the GI50 (SK-MEL-2) was > 100 µM (inactive) and the GI50 (OVCAR-8) was > 100 µM (inactive). The GI50 (SNB-19) was > 100 µM (inactive), the GI50 (OVCAR-3) was > 100 µM (inactive) and the GI50 (LOX IMVI) was > 100 µM (inactive). For the same molecule, the GI50 (OVCAR-5) was > 100 µM (inactive), the GI50 (MOLT-4) was > 100 µM (inactive) and the GI50 (ACHN) was > 100 µM (inactive). For the same molecule, the GI50 (TK-10) was > 100 µM (inactive), the GI50 (CCRF-CEM) was > 100 µM (inactive) and the GI50 (A549) was > 100 µM (inactive). For the same molecule, the GI50 (786-0) was > 100 µM (inactive), the GI50 (SW-620) was > 100 µM (inactive) and the GI50 (SK-MEL-28) was > 100 µM (inactive). The GI50 (SNB-78) was > 100 µM (inactive).
